Source: US7452688B2, “Transformed cell with enhanced sensitivity to antifungal compound and use thereof” (Sumitomo Chemical Company, Limited, priority 2002, dated 2008)

Test system: transformed budding yeast TM182-BcOS1-I365S
Test: Antifungal compound sensitivity test of transformed budding yeast TM182-BcOS1-I365S (Example 6)
Type: cell-based, Saccharomyces cerevisiae
Settings: 30° C. 67 hours; for Degree of growth of budding yeast (%) TM182-BcOS1-I365S Gal-Ura-Leu medium: control medium
Experimental: The transformed budding yeast TM182-BcOS1-I365S prepared in Example 5 was cultured at 30° C. for 18 hours in a Glu-Ura-Leu medium. The absorbance at 600 nm of a cell suspension of the grown transformed budding yeast was measured, and a cell suspension diluted with sterilized distilled water to the absorbance of 0.1 was prepared. Further, a cell suspension in which the aforementioned cell suspension of the transformed budding yeast TM182-BcOS1-I365S was diluted 200-fold with a Glu-Ura-Leu medium and, as a control, a cell suspension in which the cell suspension was diluted 200-fold with a Gal-Ura-Leu medium were prepared. A solution in which each of Compound (1) to (3) was dissolved in dimethylsulfoxide (DMSO) to the concentration of 60 ppm, a solution in which each of Compounds (4) and (5) was dissolved in dimethylsulfoxide (DMSO) to the concentration of 2000 ppm, and a solution in which each of Compounds (6) and (7) was dissolved in dimethylsulfoxide (DMSO) to the concentration of 20 ppm were prepared, and two microplates were prepared in which each 2.0 μL per well of the Compound solution and DMSO as a control were dispensed into two wells. In one microplate among them, each 200 μL of cell suspensions of the transformed budding yeast TM182-BcOS1-I365S which had been prepared by dilution with a Glu-Ura-Leu medium as described above was dispensed, and cultured by allowing to stand at 30° C. for 67 hours. In another microplate, as a control, each 200 μL of cell suspensions of the transformed budding yeast TM182-BcOS1-I 365S which had been prepared by dilution with a Gal-Ura-Leu medium was dispensed, and cultured by allowing to stand at 30° C. for 67 hours. After culturing, the absorbance at 600 nm of each well was measured with a microplate reader.
Degrees of growths of both of the transformed budding yeasts cultured under the presence of Compounds (1) to (7) and budding yeast as a control therefor are shown in Table 2. Degrees of growths of both of the transformed budding yeasts and budding yeast as a control are expressed by a relative value in percentage, letting the absorbance at 600 nm at the concentration of the Compound of 0 ppm to be 100. It was confirmed that an inhibiting degree of growth of the transformed budding yeast TM182-BcOS1-I 365S by each test substance was grater than an inhibiting degree of growth of the transformed budding yeast AH22-BcOS1-I 365S by each test substance, and the transformed budding yeast TM182-BcOS1-I365S was a transformed cell with the enhanced sensitivity to an antifungal compound as compared with the transformed budding yeast AH22-BcOS1-I365S.

| SMILES | Degree of growth of budding yeast (%) TM182-BcOS1-I365S Gal-Ura-Leu medium (final concentration 20 ppm) | Degree of growth of budding yeast (%) TM182-BcOS1-I365S Glu-Ura-Leu medium (final concentration 20 ppm) | Degree of growth of budding yeast (%) TM182-BcOS1-I365S Gal-Ura-Leu medium (final concentration 0.2 ppm) | Degree of growth of budding yeast (%) TM182-BcOS1-I365S Glu-Ura-Leu medium (final concentration 0.2 ppm) |
| --- | --- | --- | --- | --- |
| O=[N+]([O-])c1c(Cl)c(Cl)c(Cl)c(Cl)c1Cl [Compound (4), Quintozene] | 101% | 41% | – | – |
| COP(=S)(OC)Oc1c(Cl)cc(C)cc1Cl [Compound (5), Tolclofos-methyl] | 76% | 13% | – | – |
| N#Cc1c[nH]cc1-c1cccc2c1OC(F)(F)O2 [Compound (6), Fludioxonil] | – | – | 93% | 7% |
| N#Cc1c[nH]cc1-c1cccc(Cl)c1Cl [Compound (7), Fenpiclonil] | – | – | 90% | 22% |
